Results: patent US6998383B2, “Inhibitors of receptor activator of NF-κB and uses thereof” (Research Development Corporation, priority 2001, dated 2006)

How the values were obtained:
[1] = target: T1, TRAF2 binding to the cytoplasmic domain of RANK (Homo sapiens, UniProt Q12933); assay: Competitive GST-pull down assay, TRAF2 binding to RANK cytoplasmic domain; settings: 100 μM peptide, FLAG-TRAF2 293 cell extract (FIG. 4C)
T1 construct: expressed in transfected cells; host or cells: human 293 cells (TRAF lysate); The GST-RANK fusion was purified as previously described
T1 sequence (Q12933 1-501): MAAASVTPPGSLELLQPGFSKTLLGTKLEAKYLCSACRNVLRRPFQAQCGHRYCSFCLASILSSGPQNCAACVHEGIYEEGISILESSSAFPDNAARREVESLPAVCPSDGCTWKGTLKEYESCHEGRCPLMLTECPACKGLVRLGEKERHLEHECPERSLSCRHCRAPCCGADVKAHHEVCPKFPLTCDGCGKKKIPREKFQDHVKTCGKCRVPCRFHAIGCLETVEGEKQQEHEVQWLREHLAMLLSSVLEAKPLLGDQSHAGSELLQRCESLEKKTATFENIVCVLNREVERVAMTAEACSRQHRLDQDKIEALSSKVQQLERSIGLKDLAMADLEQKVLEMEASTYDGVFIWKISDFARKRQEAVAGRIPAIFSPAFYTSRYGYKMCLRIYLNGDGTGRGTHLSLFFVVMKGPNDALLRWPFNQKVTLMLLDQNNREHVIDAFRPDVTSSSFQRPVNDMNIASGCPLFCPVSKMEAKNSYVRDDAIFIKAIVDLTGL
Procedure: Cellular extracts from human 293 cells transfected with either FLAG-TRAF2, -TRAF5, or -TRAF6 were mixed with GST or GST-RANKed in the absence or presence of 100 μM of the indicated peptides. A GST-pull down assay was performed as described below. The bound TRAFs were visualized by immunoblotting with anti-FLAG antibodies.
Equivalent amounts of GST or GST-RANK cytoplasmic domain (GST-RANKed) fusion protein attached to 20 μl of glutathione agarose beads were mixed with lysates (50 μg) from 293 cells programmed to express the epitope-tagged TRAF protein and the indicated peptides in binding buffer (20 mM TRIS, pH 8, 150 mM NaCl, 1 mM DTT, 2 mM EDTA, and 0.1% NP-40) and allowed to rotate for 1 h at 4° C. The beads were collected by centrifugation, washed three times in binding buffer, and then washed once in low-salt buffer (20 mM TRIS, pH 8, 50 mM NaCl, and 1 mM DTT). Bound proteins were eluted with addition of SDS-sample buffer and boiled. The eluted proteins were subjected to 7.5% SDS-PAGE and western blot analysis was performed with anti-FLAG antibodies.
The cytoplasmic domain of RANK interacts with many TRAF molecules, including TRAF1, 2, 3, 5, and 6 (7-9, 11, 12). While TRAF1, 2, 3, and 5 interact with the c-terminal tail of receptor activator of NF-κB, TRAF6 interacts with a membrane proximal region of the cytoplasmic domain of the receptor activator of NF-κB. […]

[2] = tested on: p38 kinase; assay: RANKL-mediated p38 kinase activation in RAW264.7 cells (phospho-specific immunoblot); assay type: cell-based, mouse; settings: peptide 6 h, RANKL 10 nM 15 min (FIG. 5C)
Procedure: (§1) FIG. 5B and FIG. 5C show inhibition of RANKL-mediated ERK and p38 activation by L-T6DP-1. Whole cell extracts (30 μg) from FIG. 5A were separated by 10% SDS-PAGE and electroblotted onto a nitrocellulose membrane. The membranes were first immunoblotted with the indicated phospho-specific antibody and then stripped and re-probed with the indicated antibodies as described below.
(§2) Stimulation of the receptor activator of NF-κB activates members of the MAPK family including JNK, ERK and p38 kinase. The ability of the TRAF6 binding peptides to inhibit the receptor activator of NF-κB ligand-induced JNK, ERK, and p38 kinase activation was examined in RAW264.7 cells. […] Similar to the results with JNK, only L-T6DP-1 was able to block ERK (FIG. 5B) and p38 kinase (FIG. 5C) activation induced by the receptor activator of NF-κB ligand in RAW264.7 cells.

[3] = tested on: ERK; assay: RANKL-mediated ERK activation in RAW264.7 cells (phospho-specific immunoblot); assay type: cell-based, mouse; settings: peptide 6 h, RANKL 10 nM 15 min (FIG. 5B)
Procedure: as §1, §2

[4] = tested on: JNK; assay: RANKL-mediated JNK activation in RAW264.7 cells (immune complex kinase assay, GST-Jun (1-79) substrate); assay type: cell-based, mouse; settings: peptide 6 h, RANKL 10 nM 15 min (FIG. 5A)
Procedure: RAW264.7 cells were plated in 6-well plates and treated with the indicated peptides for 6 h, then treated with RANKL (10 nM) for 15 mm. Whole cell extracts were prepared and 30 μg of cell lysate was immunoprecipitated with anti-JNK1. In vitro kinase assays were performed using GST-Jun (1-79) as the substrate as described below.
Lysates were prepared from RAW cells stimulated with RANKL as indicated in the legends to the figures. Approximately 30 μg was then used for immunoprecipitation with indicated antibodies and protein A/G Sepharose beads for 1 h. Beads were collected by centrifugation, washed three times in lysis buffer, and then washed two times in low-salt buffer. JNK activity was analyzed using exogenous GST-Jun (1-79) as a substrate as previously described (8). Kinase activity was quantitated using a PhosphoImager and Imagequant Software (Molecular Dynamics, Sunnyvale, Calif.).
as §2

[5] = tested on: NF-κB; assay: RANKL-induced NF-κB activation in RAW264.7 cells (gel mobility shift assay); assay type: cell-based, mouse; settings: peptide pre-treatment 5 h, RANKL 10 nM 15 min (FIG. 4A)
Procedure: RAW264.7 cells were plated in 6-well plates and treated with the indicated peptides for 5 h, then treated with RANKL (10 nM) for 15 mm. Nuclear and cytoplasmic extracts were prepared and a gel mobility shift assays was performed with 8 μg of nuclear extracts as described below.
Nuclear extracts were prepared from transfected cells essentially as described (34). Equivalent amounts of nuclear protein were used in an EMSA reaction with ^32P-labeled NF-κB oligonucleotide from HIV-LTR as described (34). NF-κB activation was quantitated using a PhosphoImager and Imagequant Software.
A mutant form of the receptor activator of NF-κB which contains only the TRAF6 binding domain is sufficient to activate NF-κB (8), and a dominant negative TRAF6 inhibits RANK-mediated NF-κB activation in 293 cells (9). To investigate the effect of the TRAF6 binding peptides on RANKL-induced NF-κB activation, NF-κB activation was examined in RAW264.7 cells that activated NF-κB when stimulated with RANKL (37). RANKL-stimulated RAW264.7 cells activated NF-κB as indicated by a gel mobility shift assay (FIG. 4A).

Substance: L-T6DP-1: Kaposi fibroblast growth factor signal sequence hydrophobic domain attached to murine RANK peptide containing the known TRAF6 binding domain (AAVALLPAVLLALLAPRKIPTEDEYTDRPSQPST; PEPTIDE Peptide L-T6Bp-1)
- TRAF2 binding to the cytoplasmic domain of RANK [1]: neither L-T6DP-1 nor L-T6DP-2 inhibited
- RANKL-induced p38 kinase activation [2]: able to block
- RANKL-induced ERK activation [3]: able to block
- RANKL-mediated JNK activation [4]: capable of inhibiting
- RANKL-induced NF-κB activation [5]: suppressed in a dose-dependent manner
